Data reported in patent US20220249413A1, “SWELL 1 MODULATORS FOR TREATMENT OF NON-ALCOHOLIC FATTY LIVER DISEASE, IMMUNE DEFICIENCIES, MALE INFERTILITY AND VASCULAR DISEASES” (priority 2019, published 2022).

What was measured:
Assay type in all cases: in vivo, mouse
[1] = Metabolic phenotyping: fasting glucose, GTT, ITT
Source text: Patients Human islets and adipocytes were obtained and cultured as described previously (Zhang et al., Nat Cell Biol, 19, 504-517, 2017; Kang et al., Nature Communications, 9, 367, 2018). The Patients involved in the study were anonymous and information such as gender, age, HbA1c, glucose levels and BMI only were available to the research team. The study was approved and carried out as per the guidelines of the University of Iowa Institutional Review Board (IRB). Animals All experimental procedures involving mice were approved by the Institutional Animal Care and Use Committee of the University of Iowa and Washington University at St. Louis. All C57BL/6 mice involved in study were purchased from Charles River Labs. Both KK.Cg-Ay/J (KKA^y) and KK.Cg-Aa/J (KKA^a) mice involved in study were gender and age-matched mice obtained from Jackson Labs (Stock No: 002468) and bred up for experiments. The mice were fed ad libitum with either regular chow (RC) or high-fat diet (Research Diets, Inc., 60 kcal % fat) with free access to water and housed in a light-, temperature- and humidity-controlled room. For high-fat diet (HFD) studies, only male mice were used and were started on HFD regimen at the age of 6-9 weeks. For all experiments involving KKA^y and KKA^a mice, both males and females were used at approximately 50/50 ratio. In all experiments involving mice, investigators were kept blinded both during the experiments and subsequent analysis. Smod1 (DCPIB) treatment Smod1 (DCPIB, Tocris, #D1540), was dissolved in Kolliphor® EL (Sigma, #C5135). Either vehicle (Kolliphor® EL) or Smod1 (5 mg/kg of body weight/day) were injected (intraperitoneal, i.p.) using 1 cc syringe/26G/[…] needle daily for 4-10 days, and in one experiment, daily for 8 weeks. Adenovirus Adenovirus type 5 with Ad5-RIP2-GFP (4.1×10^10 PFU/ml) and Ad5-CAG-LoxP-stop-LoxP-3× Flag-SWELL1 (1×10^10 PFU/ml) were obtained from Vector Biolabs. Adenovirus type 5 with Ad5-CMV-Cre-wt-IRES-eGFP (8×10^10 PFU/ml) was obtained from the University of Iowa Viral Vector Core. Cell culture Wildtype (WT) and SWELL1 knockout (KO) 3T3-F442A (Sigma-Aldrich) cells were cultured and differentiated as described previously (Zhang et al., Nat Cell Biol, 19, 504-517, 2017). Preadipocytes were maintained in 90% DMEM (25 mM D-Glucose and 4 mM L-Glutamine) containing 10% fetal bovine serum (FBS) and 100 IU penicillin and 100 μg/ml streptomycin on collagen-coated (rat tail type-I collagen, Corning) plates. Upon reaching confluency, the cells were differentiated in the above-mentioned media supplemented with 5 μg/ml insulin (Cell Applications) and replenished every other day with the differentiation media. For insulin signaling studies on WT and KO adipocytes with or without SWELL1 overexpression (O/E), the cells were differentiated for 10 days and transduced with Ad5-CAG-LoxP-stop-LoxP-3× Flag-SWELL1 virus (MOI 12) on day 11 in 2% FBS containing differentiation medium. To induce the overexpression, Ad5-CMV-Cre-wt-IRES-eGFP (MOI 12) was added on day 13 in 2% FBS containing differentiation medium. The cells were then switched to 10% FBS containing differentiation medium from day 15 to 17. On day 18, the cells were starved in serum free media for 6 h and stimulated with 0 and 10 nM insulin for either 5 or 15 min. Either Ad5-CAG-LoxP-stop-LoxP-3× Flag-SWELL1 or Ad5-CMV-Cre-wt-IRES-eGFP virus transduced cells alone were used as controls. Based on GFP fluorescence, viral transduction efficiency was ˜90%.
Electrophysiology Patch-clamp recordings of β-cells and mature adipocytes were performed as described previously (Zhang et al., Nat Cell Biol, 19, 504-517, 2017; Kang et al., Nature Communications, 9, 367, 2018). 3T3-F442A WT and KO preadipocytes were prepared as described in the Cell culture section above. […]

[2] = Traced hyperinsulinemic euglycemic clamp in KKA^y mice
[3] = NAFLD assessment: liver weight, histology, triglycerides, NAS in HFD mice; details: HFD mice treated chronically and intermittently over 21 weeks
Experimental: Liver isolation, triglycerides and histology HFD mice treated with either vehicle or Smod1 were anesthesized with […] followed by cervical dislocation. Gross liver weights were measured and identical sections from right medial lobe of liver were dissected for further examinations. Total triglyceride content was determined by homogenizing 10-50 mg of tissue in 1.5 ml of chloroform:methanol (2:1 v/v) and centrifuged at 12000 rpm for 10 mins at 4° C. An aliquot, 20 ul, was evaporated in a 1.5 ml microcentrifuge tube for 30 mins. Triglyceride content was determined by adding 100 μl of Infinity Triglyceride Reagent (Fisher Scientific) to the dried sample followed by 30 min incubation at RT. The samples were then transferred to a 96 well plate along with standards (0-2000 mg/dl) and absorbance was measured at 540 nm and the final concentration was determined by normalizing to tissue weight. For histological examination, liver sections were fixed in 10% zinc formalin and paraffin embedded for sectioning. Haematoxylin and eosin (H&E) stained sections were then assessed for steatosis grade, lobular inflammation and hepatocyte ballooning for non-alcoholic fatty liver disease (NAFLD) scoring as described (Kleiner et al., Hepatology, 41, 1313-1321, 2005; Liang et al., PLoS One, 9, e115922, 2014; Rauckhorst et al., Mol Metab, 6, 1468-1479, 2017).

[4] = Glucose-stimulated insulin secretion (plasma insulin and islet perifusion); details: 21 weeks HFD mice
[5] = system: SWELL1; assay: SWELL1 expression in adipose tissue of treated T2D mice (Western blot); details: 5 mg/kg i.p.
Source text: Patients Human islets and adipocytes were obtained and cultured as described previously (Zhang et al., Nat Cell Biol, 19, 504-517, 2017; Kang et al., Nature Communications, 9, 367, 2018). The Patients involved in the study were anonymous and information such as gender, age, HbA1c, glucose levels and BMI only were available to the research team. The study was approved and carried out as per the guidelines of the University of Iowa Institutional Review Board (IRB). Animals All experimental procedures involving mice were approved by the Institutional Animal Care and Use Committee of the University of Iowa and Washington University at St. Louis. All C57BL/6 mice involved in study were purchased from Charles River Labs. Both KK.Cg-Ay/J (KKA^y) and KK.Cg-Aa/J (KKA^a) mice involved in study were gender and age-matched mice obtained from Jackson Labs (Stock No: 002468) and bred up for experiments. The mice were fed ad libitum with either regular chow (RC) or high-fat diet (Research Diets, Inc., 60 kcal % fat) with free access to water and housed in a light-, temperature- and humidity-controlled room. For high-fat diet (HFD) studies, only male mice were used and were started on HFD regimen at the age of 6-9 weeks. For all experiments involving KKA^y and KKA^a mice, both males and females were used at approximately 50/50 ratio. […] Based on GFP fluorescence, viral transduction efficiency was ˜90%. […]

[6] = HFD-induced T2D mice and KKA^y model, 5 mg/kg i.p. 4-10 days
[7] = control KKA^a parental strain, 5 mg/kg x 4-10 days

SMILES: CCCCC1(C2CCCC2)Cc2cc(OCCCC(=O)O)c(Cl)c(Cl)c2C1=O (stereo not shown) [Smod1, 4-[(2-Butyl-6,7-dichloro-2-cyclopentyl-2,3-dihydro-1-oxo-1H-inden-5-yl)oxy]butanoic acid]
- random glucose 30 minutes after injection ([1]; HFD fed C57BL/6 mice, 5 mg/kg i.p., acute (FIG. 23)): no evidence of exacerbated hyperglycemia
- fasting glucose (FG) [1, 6]: normalized
- glucose tolerance (GTT) [1, 6]: normalized
- insulin-tolerance (ITT) [1, 6]: markedly improved
- glucose and insulin tolerance [1, 7]: nor does it alter glucose and insulin tolerance
- hypoglycemia [1, 7]: does not cause hypoglycemia
- FG, GTT and ITT compared to vehicle ([1]; lean, non-T2D, glucose-tolerant mice): similar
- FG, GTT and ITT ([1]; re-treated after 16 weeks of HFD feeding, HFD-induced T2D mice): marked improvements
- glucose-infusion rate (GIR) to maintain euglycemia ([2]; KKA^y mice, 5 mg/kg for 4 days): 33.58 ± 3.4 mg/kg/min
- reduction of hepatic glucose production (Ra) ([2]; KKA^y mice, baseline (basal)): ~1.6 fold
- suppression of hepatic glucose production (Ra) ([2]; KKA^y mice, during glucose/insulin infusion (clamp)): 4.8 fold
- enhancement of insulin stimulated 2-DG uptake ([2]; brown fat, skeletal muscle, KKA^y mice): not in brown fat, or skeletal muscle
- insulin stimulated 2-DG uptake ([2]; inguinal white adipose tissue (iWAT), KKA^y mice): 7.0 ± 0.78 nmol/min/g
- glucose-incorporation into glycogen ([2]; liver, adipose and skeletal muscle): markedly increased
- insulin stimulated 2-DG uptake ([2]; myocardium (Heart), KKA^y mice): 451.3 ± 24.63 nmol/min/g
- hepatic steatosis on histology [3]: marked reduction
- liver triglycerides [3]: marked reduction
- liver weights ([3]; 5 mg/kg i.p.): marked reduction
- NAFLD activity score (NAS) ([3]; vs vehicle): significantly improved
- glucose-stimulated insulin secretion (GSIS), serum insulin and perifusion of isolated islets [4]: significantly improved
- augmentation of SWELL1 expression in adipose tissue ([5]; HFD-fed T2D mice): 2.3 fold
- adipose SWELL1 expression ([5]; KKA^y mice): levels comparable to both non-T2D C57/B6 mice and to the parental KKA^a parental strain
